These results are taken from patent US5391540A, “Substituted pyridine compounds” (Rohm and Haas Company, priority 1993, dated 1995).

Experiment in all cases: Pre-emergent herbicidal activity (Table A)
Holding throughout (type): in vivo

The subject of one experiment is Barnyardgrass. The note with it: Echinochloa crus-galli, pre-emergence, Bygr, 11.2 kg/ha, 10-14 days, read-out: herbicidal rating (% inhibition). As to the method: (§1) The herbicidal ratings used in Tables A and B were assigned according to a scale based on the percent inhibition of each plant species. The herbicide rating symbols in Tables A and B are defined as follows: […]
(§2) One set of pre-emergent tests was conducted as follows:
(§3) Topsoil was placed in a pan and compacted to a depth of 0.95 to 1.27 cm. from the top of the pan. A predetermined number of seeds of each of several monocotyledonous and dicotyledonous annual plant species and/or vegetative propagules of various perennial plant species were placed on top of the soil. The soil required to level fill a pan after seeding or adding vegetative propagules was weighed into another pan. A known amount of the test compound dissolved or suspended in an organic solvent or water and applied in acetone or water as a carrier was thoroughly mixed with this cover soil, and the herbicide/soil mixture was used as a cover layer for the previously prepared pan.
(§4) The plant species usually regarded as weeds which were utilized in one set of pre-emergent activity tests, the data for which are shown in Table A, are identified by letter headings printed diagonally above the columns according to the following legend: […]

The next experiment deals with Canada thistle. Particulars: Cirsium arvense, pre-emergence, Cath, 11.2 kg/ha, 10-14 days, read-out: herbicidal rating (% inhibition). As for the experimental part: as §1, §2, §3, §4
Another experiment deals with Cocklebur. The note with it: Xanthium strumarium, pre-emergence, Cobu, 11.2 kg/ha, 10-14 days, read-out: herbicidal rating (% inhibition). As for the experimental part: as §1, §2, §3, §4
A further experiment relates to Common Lambsquarters. The note with it: Chenopodium album, pre-emergence, Colq, 11.2 kg/ha, 10-14 days, read-out: herbicidal rating (% inhibition). As to the method:
as §1, §2, §3, §4

The subject of the next experiment is Downy Brome. The note with it: Bromus tectorum, pre-emergence, Dobr, 11.2 kg/ha, 10-14 days, read-out: herbicidal rating (% inhibition). As to the method: as §1, §2, §3, §4
In the next experiment the test system is Morningglory. Particulars: Ipomoea, pre-emergence, Mogl, 11.2 kg/ha, 10-14 days, read-out: herbicidal rating (% inhibition). As for the experimental part: as §1, §2, §3, §4
In a further experiment the test system is Pennsylvania Smartweed. The note with it: pre-emergence, Pesw, 11.2 kg/ha, 10-14 days, read-out: herbicidal rating (% inhibition). As for the experimental part:
as §1, §2, §3, §4

In the next experiment the test system is Quackgrass. The note with it: pre-emergence, Rhqg, 11.2 kg/ha, 10-14 days, read-out: herbicidal rating (% inhibition). As to the method:
as §1, §2, §3, §4

A further experiment concerns Rhizome Johnsongrass. The note with it: Sorghum halepense, pre-emergence, Rhjg, 11.2 kg/ha, 10-14 days, read-out: herbicidal rating (% inhibition). As for the experimental part:
as §1, §2, §3, §4

The next experiment has as its system Velvetleaf. Particulars: Abutilon theophrasti, pre-emergence, Vele, 11.2 kg/ha, 10-14 days, read-out: herbicidal rating (% inhibition). As for the experimental part:
as §1, §2, §3, §4

In the next experiment the test system is Yellow Nutsedge. The note with it: Cyperus, pre-emergence, Yens, 11.2 kg/ha, 10-14 days, read-out: herbicidal rating (% inhibition). As to the method:
as §1, §2, §3, §4

Turning to `COC(=O)c1c(C(F)(F)F)nc(OC)c(-n2cccc2)c1CC(C)C` [Compound 14, 3-pyridinecarboxylic acid, 6-methoxy-4-(2-methylpropyl)-5-(1H-pyrro1-1-yl)-2-(trifluoromethyl)-, methyl ester], the inhibition at 11200 g/ha with Barnyardgrass lay in the range of 75 to 100%; in the experiment on Canada thistle it was 75 to 100%; with Cocklebur it was 0 to 24%; with Common Lambsquarters, 75 to 100%; with Downy Brome it was 75 to 100%; with Morningglory it was 75 to 100%. Further, the inhibition at 11200 g/ha was 75 to 100% with Pennsylvania Smartweed; 50 to 74% in the experiment with Quackgrass; 75 to 100% with Rhizome Johnsongrass; 75 to 100% in the experiment on Velvetleaf; 0 to 24% in the experiment on Yellow Nutsedge.

`COC(=O)c1c(OC)nc(C(F)(F)F)c(-n2cccc2)c1CC(C)C` [Compound 15, 3-pyridinecarboxylic acid, 2-methoxy-4-(2-methylpropyl)-5-(1H-pyrro1-1-yl)-6-(trifluoromethyl)-, methyl ester]: the inhibition at 11200 g/ha in the experiment with Barnyardgrass lay within 75 to 100%; in the experiment with Canada thistle, 75 to 100%; with Cocklebur, 0 to 24%; in the experiment on Common Lambsquarters it was 75 to 100%; with Downy Brome, 75 to 100%; in the experiment on Morningglory, 75 to 100%. Moreover, the inhibition at 11200 g/ha with Pennsylvania Smartweed lay in the range of 75 to 100%; in the experiment with Quackgrass it was 75 to 100%; with Rhizome Johnsongrass, 75 to 100%; in the experiment on Velvetleaf it was 75 to 100%; in the experiment with Yellow Nutsedge it was 25 to 49%.

`CCCCOC(=O)c1c(C(F)(F)F)nc(OC)c(C(=O)OC)c1CC(C)C` [Compound 16, 3,5-pyridinedicarboxylic acid, 2-methoxy-4-(2-methylpropyl)-6-(trifluoromethyl)-, 5 butyl 3-methyl ester]: the inhibition at 11200 g/ha in the experiment with Barnyardgrass was in the range of 75 to 100%; with Canada thistle it was 50 to 74%; in the experiment on Cocklebur it was 0 to 24%; with Common Lambsquarters, 75 to 100%; in the experiment on Downy Brome, 75 to 100%; in the experiment on Morningglory it was 75 to 100%. Also, the inhibition at 11200 g/ha in the experiment with Pennsylvania Smartweed lay within 75 to 100%; in the experiment on Quackgrass it was 75 to 100%; with Rhizome Johnsongrass it was 0 to 24%; in the experiment on Velvetleaf it was 75 to 100%; in the experiment on Yellow Nutsedge it was 0 to 24%.

For `COC(=O)c1c(C(F)(F)F)nc(OC)c(C#N)c1CC(C)C` [Compound 20, 3-pyridinecarboxylic acid, 5-cyano-6-methoxy-4-(2-methylpropyl)-2-(trifluoromethyl)-, methyl ester], the inhibition at 11200 g/ha with Barnyardgrass lay within 75 to 100%; in the experiment with Canada thistle, 0 to 24%; in the experiment on Cocklebur it was 0 to 24%; in the experiment with Common Lambsquarters, 75 to 100%; in the experiment with Downy Brome, 75 to 100%; in the experiment with Morningglory, 50 to 74%. Also, the inhibition at 11200 g/ha lay within 25 to 49% with Pennsylvania Smartweed; 75 to 100% with Quackgrass; 75 to 100% in the experiment on Rhizome Johnsongrass; 0 to 24% with Velvetleaf; 0 to 24% in the experiment with Yellow Nutsedge.

`CNC(=O)c1c(OC)nc(C(F)(F)F)c(C(=O)OC)c1CC(C)C` [Compound 21, 3-pyridinecarboxylic acid, 6-methoxy-5-[(methylamino)carbonyl]-4-(2-methylpropyl)-2-(trifluoromethyl)-, methyl ester]: the inhibition at 11200 g/ha was in the range of 75 to 100% in the experiment with Barnyardgrass; 0 to 24% with Canada thistle; 0 to 24% in the experiment on Cocklebur; 75 to 100% with Common Lambsquarters; 75 to 100% in the experiment on Downy Brome; 0 to 24% in the experiment on Morningglory. Further, the inhibition at 11200 g/ha lay within 0 to 24% in the experiment with Pennsylvania Smartweed; 75 to 100% with Quackgrass; 0 to 24% with Rhizome Johnsongrass; 0 to 24% in the experiment with Velvetleaf; 0 to 24% with Yellow Nutsedge.

As to `COC(=O)c1c(C(F)(F)F)[nH]c(=O)c(C#N)c1CC(C)C` [Compound 22, 3-pyridinecarboxylic acid, 5-cyano-1,6-dihydro-4-(2-methylpropyl)-6-oxo-2-(trifluoromethyl)-, methyl ester], the inhibition at 11200 g/ha in the experiment on Barnyardgrass, in the experiment with Canada thistle, with Cocklebur, in the experiment on Common Lambsquarters, in the experiment with Downy Brome and in the experiment on Morningglory was 0 to 24% each time. Also, the inhibition at 11200 g/ha in the experiment with Pennsylvania Smartweed, in the experiment with Quackgrass, in the experiment with Rhizome Johnsongrass, in the experiment on Velvetleaf and in the experiment on Yellow Nutsedge was 0 to 24% in each case.

Turning to `C=CCOc1nc(C(F)(F)F)c(C(=O)OC)c(CC(C)C)c1C(=O)OCC` [Compound 23, 3,5-pyridinecarboxylic acid, 4-(2-methy1-propyl)-2-(2-propenyloxy)-6-(trifluoromethyl)-, 3-ethyl 5-methyl ester, hydrate (1:0.3)], the inhibition at 11200 g/ha lay in the range of 75 to 100% in the experiment on Barnyardgrass; 0 to 24% with Canada thistle; 0 to 24% with Cocklebur; 75 to 100% with Common Lambsquarters; 75 to 100% in the experiment with Downy Brome; 25 to 49% in the experiment with Morningglory. Besides, the inhibition at 11200 g/ha was 75 to 100% in the experiment on Pennsylvania Smartweed; 25 to 49% in the experiment on Quackgrass; 75 to 100% in the experiment on Rhizome Johnsongrass; 25 to 49% in the experiment on Velvetleaf; 0 to 24% in the experiment with Yellow Nutsedge.

As for `COC(=O)c1c(C(F)(F)F)nc(OC)c(C(=O)n2cccn2)c1CC(C)C` [Compound 24, 3-pyridinecarboxylic acid, 6-methoxy-4-(2-methylpropyl)-5-(1H-pyrazo1-1-ylcarbonyl)-2-(trifluoromethyl)-, methyl ester, hydrate (1:0.3)], the inhibition at 11200 g/ha in the experiment on Barnyardgrass lay in the range of 75 to 100%; in the experiment with Canada thistle, 25 to 49%; in the experiment on Cocklebur, 0 to 24%; with Common Lambsquarters, 75 to 100%; with Downy Brome, 75 to 100%; in the experiment on Morningglory, 75 to 100%. For the same molecule, the inhibition at 11200 g/ha is 75 to 100% in the experiment on Pennsylvania Smartweed; 75 to 100% with Quackgrass; 75 to 100% in the experiment with Rhizome Johnsongrass; 75 to 100% with Velvetleaf; 0 to 24% in the experiment on Yellow Nutsedge.

`COC(=O)c1c(C(F)(F)F)nc(OC)c(C(=O)NCCO)c1CC(C)C` [Compound 25, 3-pyridinecarboxylic acid, 5-[[(2-hydroxyethyl)amino]carbonyl]-6-methoxy-4-(2-methylpropyl)-2-(trifluoromethyl)-, methyl ester, hydrate (1:0.2)]: the inhibition at 11200 g/ha in the experiment with Barnyardgrass, in the experiment on Canada thistle, with Cocklebur, in the experiment with Common Lambsquarters, with Downy Brome and with Morningglory was 0 to 24% each time. The inhibition at 11200 g/ha with Pennsylvania Smartweed, in the experiment with Quackgrass, in the experiment on Rhizome Johnsongrass, with Velvetleaf and in the experiment on Yellow Nutsedge was 0 to 24% throughout.
